Assay results: patent US20100152129A1 (priority 2008, published 2010)
Where two headings read alike, the source gives them in different places.

Columns and labels:
Panc-1 cells [1] = assay: Microarray gene expression analysis; type: cell-based, human; details: Panc-1, microarray
Excerpt: The goal of the microarray analysis was to evaluate putative gene expression signatures associated with the in vitro synergistic effect of the combination therapy of Gemcitabine with […]-00 in Panc-1 cells. The time points (3 hrs, 6 hrs, 12 hrs) were chosen to establish early molecular changes in the transcription profile for probable biomarkers and mechanism of action for the combination therapy. Approximately 20 million cells were lysed in Trizol Reagent (Invitrogen Corp, USA) and passed through a 21-gauge needle for 5-10 times before RNA extraction was performed. Total RNA extraction was performed using the RNeasy Mini kit (Qiagen, USA) according to the manufacturer's protocol. The final total RNA was eluted in nuclease-free water and the concentration/purity was determined by Nanodrop spectrophotometer (Thermo Fisher Scientific, Delaware, USA). cDNA generation and labeling: 20 μg of total RNA was reverse transcribed using amino allyl dUTP and oligo dT, the resulting cDNA was indirectly labeled with Cy3/Cy5 dyes (GE Healthcare, USA) using a fluorescent labeling kit (Promega Biosciences, USA). The concentration and dye incorporation of the labeled products were determined by Nanodrop spectrophotometer (Thermo Fisher Scientific, Delaware, USA). Equal amounts of labeled cDNA were denatured at 95° C. for 5 mins, cooled and microfuged at 13200 rpm for 5 mins before hybridization. Array fabrication and hybridization: 70-mer transcript oligonucleotides representing 36,480 human genes was purchased from Operon Biotechnologies (Germany) and spotted onto aminosilane coated glass slides (ArrayIt, USA) by contact printing using a Omnigrid (OG100) spotter (Genomic Solutions Inc, USA). Post printing, the slides were cross-linked with UV light at […], vacuumed, sealed and stored in the dark. The slides were pre-processed for background reduction using Pronto (Promega Life sciences, USA) pre-hyb kit as per the manufacturer's instructions. Hybridization was carried out in the GeneTAC Hybstation (Genomic Solutions Inc, USA) for 18 hrs. The hybridization protocol is as follows: 6 hrs at 42° C. (with agitation), 6 hrs at 35° C. (with agitation), and 6 hrs at 30° C. (with agitation). Post hybridization, the arrays were washed according to the manufacturer's protocol. The slides were dried by centrifugation at 1600 rpm for 5 mins. Scanning and image analysis: Post drying, the slides were scanned in a laser scanner (Genomic Solutions, USA) for Cy3 and Cy5 detection. The PMT settings were adjusted using the auto-exposure feature of the scanner. The TIFF files thus generated were exported to GeneTAC Integrator software (Genomic Solutions, USA) for image analysis. The resultant CSV file containing the annotated genome and the corresponding ratios were further used for data analysis.

Panc-1 cells [2] = assay: CCK-8 based cytotoxicity assay; type: cell-based; details: Gem 10 nM
Excerpt: CCK-8 based cytotoxicity assay is a sensitive nonradioactive colorimetric assay for determining the number of viable cells in cell proliferation and cytotoxicity assays. WST-8 (2-(2-methoxy-4-nitrophenyl)-3-(4-nitrophenyl)-5-(2,4-disulfophenyl)-2H tetrazolium, monosodium salt) is bioreduced by cellular dehydrogenases to an orange formazan product that is soluble in tissue culture medium. The amount of formazan produced is directly proportional to the number of living cells.
Test System: The Panc-1 cell line was procured from ATCC (American Tissue type Culture Collection USA, catalog number: CRL-1469) and the frozen vial was stored in liquid nitrogen container.
Panc-1 cells were seeded at a density of 3000 cells/well in a 96 well plate and allowed to recover for 24 hrs in a CO2 incubator at 37° C. […] The final DMSO concentration was 0.5% in wells. Plates were incubated for 24, 48, and 72 hrs. At the end of incubation CCK-8 was added and kept at 37° C. for 3 hrs following which absorbance was measured at 450 nm.

Panc1 cells = details: human

| Structure (SMILES) | CDK8 gene expression value (log value of intensities) (Panc-1 cells [1]) | DICER1 gene expression value (log value of intensities) (Panc-1 cells [1]) | DLG5 gene expression value (log value of intensities) (Panc-1 cells [1]) | DNAI1 gene expression value (log value of intensities) (Panc-1 cells [1]) | FA38A gene expression value (log value of intensities) (Panc-1 cells [1]) | FGF5 gene expression value (log value of intensities) (Panc-1 cells [1]) | HELLS gene expression value (log value of intensities) (Panc-1 cells [1]) | HIST1H2BO gene expression value (log value of intensities) (Panc-1 cells [1]) | ID1 gene expression value (log value of intensities) (Panc-1 cells [1]) | MKKS gene expression value (log value of intensities) (Panc-1 cells [1]) | PPIL4 gene expression value (log value of intensities) (Panc-1 cells [1]) | RRM2 gene expression value (log value of intensities) (Panc-1 cells [1]) | SLC19A2 gene expression value (log value of intensities) (Panc-1 cells [1]) | SNX7 gene expression value (log value of intensities) (Panc-1 cells [1]) | TMPRSS3 gene expression value (log value of intensities) (Panc-1 cells [1]) | also measured |
| --- | --- | --- | --- | --- | --- | --- | --- | --- | --- | --- | --- | --- | --- | --- | --- | --- |
| Nc1ccn([C@@H]2O[C@H](CO)[C@@H](O)C2(F)F)c(=O)n1 [Gemcitabine, 2′, 2′-difluorodeoxycytidine] | −0.03 | −0.16 | −0.19 | 0.03 | −0.70 | 0.28 | 0.40 | −0.71 | −0.60 | −0.02 | 0.36 | 0.69 | 0.37 | 0.27 | 0.85 | % Cytotoxicity (Panc-1 cells [2]; 24 hrs): 21.997%; % Cytotoxicity (Panc-1 cells [2]; 48 hrs): 27.571%; % Cytotoxicity (Panc-1 cells [2]; 72 hrs): 31.47%; % Cytotoxicity (Panc-1 cells [2]; 72 hrs, listed as Gem): 31.471%; % Cytotoxicity in Panc1 cells (Panc1 cells; 6 h): 2.31%; % Cytotoxicity in Panc1 cells (Panc1 cells; 16 h): 6.54%; % Cytotoxicity in Panc1 cells (Panc1 cells; 36 h): 7.23% |
| CN1CC[C@@H](c2c(O)cc(O)c3c(=O)cc(-c4ccccc4Cl)oc23)[C@@H]1CO.Cl (relative stereo) [P276-00, (+)-trans-2-(2-Chloro-phenyl)-5,7-dihydroxy-8-(2-hydroxy-methyl-1-methyl-pyrrolidin-3-y1)-chromen-4-one hydrochloride] | 0.16 | 0.14 | 0.25 | −0.20 | −0.93 | 0.23 | 0.62 | −0.39 | 0.18 | −0.08 | 0.30 | −0.14 | 0.97 | −0.12 | 0.33 | – |
